Source: patent publication US11408900B2, “Secreted P-glycoprotein is a non-invasive biomarker of chronic rhinosinusitis” (Massachusetts Eye and Ear Infirmary, priority 2016, dated 2022)

What was measured:
HSNECCs = assay: Epithelial cytokine secretion (IL-6, IL-8, TSLP) by ELISA after exosome exposure with or without Zosuquidar; format: cell-based, human; details: 0.625 μM Zosuquidar, CRSwNP relative to control
Description: Control wells were those exposed to vehicle control alone. Following exposure, the media was collected from each well. Cytokine concentrations for TSLP (Thymic Stromal Derived Lymphopoietin), Interleukin (IL)-6, and IL-8 were determined by ELISA according to the manufactures guidelines (eBioscience, San Diego, Calif.). All secreted cytokine concentrations were normalized to total protein concentrations using the Micro BCA Protein Assay Kit (Pierce, Rockford, Ill.).

P-gp = P-gp (Homo sapiens, UniProt P08183); details: cited from earlier work
[1] = test system: healthy patient derived epithelial cell cultures (HSNECCs); assay: Quantitative fluorescent immunocytochemistry for membranous P-gp (CTCF) after recombinant P-gp exposure; format: cell-based, human; details: 24 hours
Description: (§1) HSNECCs from 7 control patients and 6 CRS patients were grown as previously described^8. Briefly, mucosal samples were washed and digested in Pronase for 90 minutes at 37° C. Cell suspensions were separated from particulate matter by centrifugation and resuspended in bronchial epithelial growth media (BEGM). Cells were plated for 2 hours on standard tissue culture plates to remove contaminating fibroblasts. Cells were then expanded for 3-5 days on human collagen type IV-coated (Collagen from human placenta, Bornstein and Traub Type IV, Sigma Aldrich, St. Louis, Mo.) 75 cm^2 dishes (Corning Life Sciences, Corning, N.Y.). […]
Fluorescent staining intensity was quantified according to previously described techniques^9. Briefly, 20× fields were chosen and images were analyzed in Image J v1.49t. The cells and 3 background areas were circled in Image J using the free hand sections tool and the integrated density, area of selected cell, and mean fluorescence of the backgrounds were measured using the region of interest (ROI) manager. The corrected total cell fluorescence (CTCF) was calculated as the integrated density−(area of selected cell×mean fluorescence of background readings). […]

[2] = test system: healthy patient derived epithelial cell cultures (HSNECCs); assay: Calcein AM P-glycoprotein activity assay after recombinant P-gp exposure; format: cell-based, human; details: 24 hours, n=7
Description: as §1
A calcein AM assay was performed to determine whether the interpolated P-gp was functional following 24 hours of recombinant P-gp exposure as described above. […] After 15 minutes, each well was washed 3 times with cold phosphate buffered saline and the calcein fluorescence within each well was quantified using a spectrophotometer (Molecular Devices SpectraMax M5, Sunnyvale, Calif.) at an excitation and emission wavelength of 494 nm and 517 nm, respectively. A decrease in fluorescence was considered an indication of increased P-gp function as previously described^4.

Sequence of P-gp (P08183 whole entry): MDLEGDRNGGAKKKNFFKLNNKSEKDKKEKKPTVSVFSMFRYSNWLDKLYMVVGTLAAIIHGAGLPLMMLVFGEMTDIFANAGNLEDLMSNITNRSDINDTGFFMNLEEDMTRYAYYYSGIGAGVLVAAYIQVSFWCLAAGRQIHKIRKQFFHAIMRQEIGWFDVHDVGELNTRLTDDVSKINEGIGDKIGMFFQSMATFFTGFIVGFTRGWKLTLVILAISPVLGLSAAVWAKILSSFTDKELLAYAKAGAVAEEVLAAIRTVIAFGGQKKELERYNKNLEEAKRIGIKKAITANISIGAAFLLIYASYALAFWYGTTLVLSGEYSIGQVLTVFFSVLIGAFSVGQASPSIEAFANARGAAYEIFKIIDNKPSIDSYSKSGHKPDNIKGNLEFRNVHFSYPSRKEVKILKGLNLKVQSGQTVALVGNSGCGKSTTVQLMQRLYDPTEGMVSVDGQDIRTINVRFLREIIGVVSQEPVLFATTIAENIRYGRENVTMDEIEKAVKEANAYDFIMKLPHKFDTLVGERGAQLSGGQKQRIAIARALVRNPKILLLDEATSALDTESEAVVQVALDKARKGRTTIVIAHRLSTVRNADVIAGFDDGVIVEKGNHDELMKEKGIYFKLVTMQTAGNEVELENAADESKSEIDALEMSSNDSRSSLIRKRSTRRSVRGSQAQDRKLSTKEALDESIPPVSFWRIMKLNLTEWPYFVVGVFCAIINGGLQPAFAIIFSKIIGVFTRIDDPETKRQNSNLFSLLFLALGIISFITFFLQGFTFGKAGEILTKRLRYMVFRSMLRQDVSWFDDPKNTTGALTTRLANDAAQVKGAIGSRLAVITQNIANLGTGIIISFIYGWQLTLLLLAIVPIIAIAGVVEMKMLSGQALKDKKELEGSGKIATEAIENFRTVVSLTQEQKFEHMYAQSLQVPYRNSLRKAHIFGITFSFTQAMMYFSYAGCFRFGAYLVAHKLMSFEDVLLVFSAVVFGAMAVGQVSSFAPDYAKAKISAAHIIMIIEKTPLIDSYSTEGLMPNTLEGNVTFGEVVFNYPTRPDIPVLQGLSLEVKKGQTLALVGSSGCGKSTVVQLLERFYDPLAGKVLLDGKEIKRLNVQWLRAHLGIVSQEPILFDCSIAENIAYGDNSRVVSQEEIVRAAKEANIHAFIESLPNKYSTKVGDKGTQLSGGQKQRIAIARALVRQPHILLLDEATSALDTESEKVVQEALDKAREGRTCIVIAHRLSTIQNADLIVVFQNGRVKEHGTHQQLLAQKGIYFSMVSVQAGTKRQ

Cl.Cl.Cl.O[C@@H](COc1cccc2ncccc12)CN1CCN([C@@H]2c3ccccc3[C@@H]3[C@H](c4ccccc42)C3(F)F)CC1 [Zosuquidar, (2R)-1-{4-[(1aR,6r,10bS)-1,1-Difluoro-1,1a,6,10b-tetrahydrodibenzo[a,e]cyclopropa[c]cyclohepten-6-yl]piperazin-1-yl}-3-(quinolin-5-yloxy)propan-2-ol,trihydrochloride]
effect on exosome induced increase in IL-6 secretion (HSNECCs): abrogated | effect on exosome induced increase in IL-8 secretion (HSNECCs): abrogated

CCOC/C=C/c1ccc(-c2nc(-c3ccc(NC(C)C)cc3)c(-c3ccc(NC(C)C)cc3)[nH]2)cc1 [OC144093, 4-[2-[4-[(E)-3-ethoxyprop-1-enyl]phenyl]-4-[4-(propan-2-ylamino)phenyl]-1H-imidazol-5-yl]-N-propan-2-ylaniline]
potency relative to the first and second-generation inhibitors (P-gp): about 10 fold

COc1cc2c(cc1OC)CN(CCc1ccc(NC(=O)c3cc(OC)c(OC)cc3NC(=O)c3cnc4ccccc4c3)cc1)CC2 [XR9576, N-[2-[[4-[2-(6,7-Dimethoxy-3,4-dihydro-1H-isoquinolin-2-yl)ethyl]phenyl]carbamoyl]-4,5-dimethoxyphenyl]quinoline-3-carboxamide]
potency relative to the first and second-generation inhibitors (P-gp): about 10 fold

recombinant human P-gp: recombinant human P-glycoprotein (USCN Life Sciences Inc.)
CTCF (corrected total cell fluorescence) of P-gp staining ([1]; 2000 ng/mL recombinant human P-gp, n=7): 1.34+/−1.85 | change in CTCF of P-gp staining ([1]; 100-2000 ng/mL exogenous recombinant human P-gp): dose dependent increase | mean calcein fluorescence ([2]; 100 ng/mL dose): 123.11+/−42.16 | mean calcein fluorescence ([2]; 2000 ng/mL dose): 82.03+/−43.69
